Assay results from patent US20240226115A1, “AXL INHIBITOR COMPOUNDS” (ARCUS BIOSCIENCES, INC., priority 2021, published 2024).

Experiments:
[1] = target: T1, recombinant human TYRO3 (Homo sapiens, UniProt Q06418); assay: HTRF KinEASE-TK biochemical potency, TYRO3; settings: 1 nM TYRO3, 700 μM ATP
T1 construct: purchased Invitrogen
T1 sequence (Q06418 41-890): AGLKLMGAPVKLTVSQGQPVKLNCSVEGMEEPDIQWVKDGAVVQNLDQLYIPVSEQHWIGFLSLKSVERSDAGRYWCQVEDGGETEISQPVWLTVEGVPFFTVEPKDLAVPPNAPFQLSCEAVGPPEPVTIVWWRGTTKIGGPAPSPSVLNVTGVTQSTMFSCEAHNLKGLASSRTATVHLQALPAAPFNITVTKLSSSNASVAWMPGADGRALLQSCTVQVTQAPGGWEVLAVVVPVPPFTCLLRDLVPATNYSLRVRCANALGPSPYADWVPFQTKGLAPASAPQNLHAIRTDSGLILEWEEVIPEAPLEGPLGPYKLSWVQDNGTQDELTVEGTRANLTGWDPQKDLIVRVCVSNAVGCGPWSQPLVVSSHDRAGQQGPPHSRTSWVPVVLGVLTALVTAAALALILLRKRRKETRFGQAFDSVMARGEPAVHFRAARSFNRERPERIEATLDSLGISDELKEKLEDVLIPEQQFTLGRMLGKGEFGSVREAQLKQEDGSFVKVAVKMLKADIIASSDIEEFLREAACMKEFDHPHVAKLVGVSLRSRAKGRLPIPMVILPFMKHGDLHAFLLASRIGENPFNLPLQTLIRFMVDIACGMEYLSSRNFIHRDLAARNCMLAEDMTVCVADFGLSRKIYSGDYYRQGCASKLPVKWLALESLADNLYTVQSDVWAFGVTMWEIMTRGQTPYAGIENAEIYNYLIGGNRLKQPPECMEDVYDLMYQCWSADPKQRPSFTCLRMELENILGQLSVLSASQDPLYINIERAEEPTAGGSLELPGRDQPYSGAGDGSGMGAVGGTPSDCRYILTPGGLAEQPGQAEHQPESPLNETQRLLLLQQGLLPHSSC
Outline: (§1)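 Enzyme preincubated with compound 1 h at RT; final 5 nM AXL or 1 nM TYRO3/MER, 800 nM TK substrate-biotin, 700 μM ATP, HEPES pH 7.4, MgCl2, 1% DMSO, 2 h at RT. HTRF 665/620 ratio read after streptavidin-XL665/cryptate antibody detection; percent activity relative to DMSO and pre-stopped controls.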

[2] = target: T2, recombinant human MER (Homo sapiens, UniProt Q12866); assay: HTRF KinEASE-TK biochemical potency, MER; settings: 1 nM MER, 700 μM ATP
T2 construct: purchased Invitrogen
T2 sequence (Q12866 21-999): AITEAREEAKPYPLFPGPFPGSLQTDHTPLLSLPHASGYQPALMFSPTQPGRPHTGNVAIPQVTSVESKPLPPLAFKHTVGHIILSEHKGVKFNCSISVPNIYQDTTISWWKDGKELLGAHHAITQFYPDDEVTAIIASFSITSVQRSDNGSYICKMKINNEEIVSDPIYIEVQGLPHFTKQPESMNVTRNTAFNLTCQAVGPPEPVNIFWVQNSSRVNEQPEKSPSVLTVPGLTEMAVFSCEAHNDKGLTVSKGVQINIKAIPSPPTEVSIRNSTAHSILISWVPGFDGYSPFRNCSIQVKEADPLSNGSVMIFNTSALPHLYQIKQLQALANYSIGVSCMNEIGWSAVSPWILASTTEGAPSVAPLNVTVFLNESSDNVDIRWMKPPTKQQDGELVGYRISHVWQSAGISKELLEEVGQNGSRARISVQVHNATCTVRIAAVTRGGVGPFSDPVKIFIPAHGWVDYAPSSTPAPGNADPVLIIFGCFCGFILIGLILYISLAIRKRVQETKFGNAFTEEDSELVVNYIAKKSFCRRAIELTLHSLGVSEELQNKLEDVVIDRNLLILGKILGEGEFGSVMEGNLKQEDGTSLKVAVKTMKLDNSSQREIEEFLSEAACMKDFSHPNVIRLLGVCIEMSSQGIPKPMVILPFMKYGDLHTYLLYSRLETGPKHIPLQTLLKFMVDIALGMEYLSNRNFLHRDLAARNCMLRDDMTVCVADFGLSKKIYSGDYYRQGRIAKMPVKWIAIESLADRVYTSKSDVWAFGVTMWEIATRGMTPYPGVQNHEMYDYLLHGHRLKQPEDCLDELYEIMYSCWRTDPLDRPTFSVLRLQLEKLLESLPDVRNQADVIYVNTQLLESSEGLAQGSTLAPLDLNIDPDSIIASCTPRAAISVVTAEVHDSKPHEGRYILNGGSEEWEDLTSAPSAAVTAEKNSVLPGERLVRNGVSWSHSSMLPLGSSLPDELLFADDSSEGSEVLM
Outline: as §1

Compound | IC50 [1] [nM] | IC50 [2] [nM]
C[C@@H]1CCCN1C1CCc2ccc(-c3cnc4[nH]nc(-c5cc6c(cc5F)C(=O)NCCO6)c4c3)cc2CC1 (stereo partly drawn) [Example 61, 7-Fluoro-8-(5-{7-[(2R)-2-methylpyrrolidin-1-yl]-6,7,8,9-tetrahydro-5H-benzo[7]annulen-2-yl}-1H-pyrazolo[3,4-b]pyridin-3-yl)-2,3,4,5-tetrahydro-1,4-benzoxazepin-5-one] | < 100 | 100 to 1000
C[C@@H]1CCCN1C1CCc2ccc(-c3cnc4[nH]nc(-c5ccc6c(c5)O[C@@H](C)CNC6=O)c4c3)cc2CC1 (stereo partly drawn) [Example 62, (2S)-2-Methyl-8-(5-{7-[(2R)-2-methylpyrrolidin-1-yl]-6,7,8,9-tetrahydro-5H-benzo[7]annulen-2-yl}-1H-pyrazolo[3,4-b]pyridin-3-yl)-2,3,4,5-tetrahydro-1,4-benzoxazepin-5-one] | < 100 | < 100
Cc1cc2c(cc1-c1cnc3[nH]nc(-c4ccc5c(c4)OCCNC5=O)c3c1)CCC(N1CCC[C@H]1C)CC2 (stereo partly drawn) [Example 64, 8-(5-{3-Methyl-7-[(2R)-2-methylpyrrolidin-1-yl]-6,7,8,9-tetrahydro-5H-benzo[7]annulen-2-yl}-1H-pyrazolo[3,4-b]pyridin-3-yl)-2,3,4,5-tetrahydro-1,4-benzoxazepin-5-one] | < 100 | < 100
C[C@@H]1CCCN1C1CCc2ccc(-c3cnc4[nH]nc(-c5ccc6c(c5)OCCNS6(=O)=O)c4c3)cc2CC1 (stereo partly drawn) [Example 66, 7-(5-{7-[(2R)-2-Methylpyrrolidin-1-yl]-6,7,8,9-tetrahydro-5H-benzo[7]annulen-2-yl}-1H-pyrazolo[3,4-b]pyridin-3-yl)-3,4-dihydro-2H-5,12,2-benzoxathiazepine-1,1-dione] | 100 to 1000 | 100 to 1000

Now from value to compound:

IC50 [1] [nM] | IC50 [2] [nM] | Compound
< 100 | < 100 | C[C@@H]1CCCN1C1CCc2ccc(-c3cnc4[nH]nc(-c5ccc6c(c5F)OCCNC6=O)c4c3)cc2CC1 (stereo partly drawn) [Example 60, 9-Fluoro-8-(5-{7-[(2R)-2-methylpyrrolidin-1-yl]-6,7,8,9-tetrahydro-5H-benzo[7]annulen-2-yl}-1H-pyrazolo[3,4-b]pyridin-3-yl)-2,3,4,5-tetrahydro-1,4-benzoxazepin-5-one]
< 100 | 100 to 1000 | O=C1NCCOc2cc(-c3n[nH]c4ncc(-c5ccc6c(n5)CCC(N5CCCC5)CC6)cc34)ccc21 (centres unmarked) [Example 63, 8-{5-[7-(Pyrrolidin-1-yl)-5H,6H,7H,8H,9H-cyclohepta[b]pyridin-2-yl]-1H-pyrazolo[3,4-b]pyridin-3-yl}-2,3,4,5-tetrahydro-1,4-benzoxazepin-5-one]
< 100 | < 100 | C[C@@H]1CCCN1C1CCc2cc(-c3cnc4[nH]nc(-c5ccc6c(c5)OCCNC6=O)c4c3)cc(Cl)c2CC1 (stereo partly drawn) [Example 65, 8-(5-{4-Chloro-7-[(2R)-2-methylpyrrolidin-1-yl]-6,7,8,9-tetrahydro-5H-benzo[7]annulen-2-yl}-1H-pyrazolo[3,4-b]pyridin-3-yl)-2,3,4,5-tetrahydro-1,4-benzoxazepin-5-one]
